From patent US7064139B2, “Method for treating retroviral infections” (Uniroyal Chemical Company, Inc., priority 2001, dated 2006)
In brackets after ≈: the same amount, converted by molar mass.

Key:
Davis strain CMV = assay: Reduction of CMV-induced cytopathicity in HEL cells; assay type: cell-based, human cytomegalovirus (HCMV); conditions: HEL cells; for EC50: Human betaherpesvirus 5, 168 h, read-out: Antiviral EC50 (ug/ml) Davis strain CMV; for EC50 / Antiviral EC50 (ug/ml) Davis strain CMV: virus-induced cytopathicity after seven days; for Antiviral % Inhibition Davis strain CMV: estimate of percent protection at the concentration in the previous column
Method: Confluent HEL cells grown in […] microtiter plates were inoculated with CMV at an input of 100 PFU (plaque forming units) per well. After a one to two hour incubation period, residual virus was removed and the infected cells were further incubated with MEM (Minimal Essential Medium) (supplemented with 2% inactivated Fetal Calf Serum (FCS), […], and 0.3% sodium bicarbonate) containing varying concentrations of the test compounds. Antiviral activity was expressed as EC50 (50% effective concentration), or test compound concentration required to reduce virus-induced cytopathicity after seven days by 50% compared to the untreated control.
In some cases, the compounds had considerable cytotoxicity against HEL cells, which made determination of the EC50 difficult. In these cases, an estimate of the percent protection at the compound concentration indicated in the previous columns is given.

HIV-2 (ROD) = assay: Inhibition of HIV-2 syncytium formation in CEM cells; assay type: cell-based; conditions: for EC50: Human immunodeficiency virus 2, CCRF-CEM, read-out: EC50 (ug/ml) HIV-2; for EC50 / EC50 (ug/ml) HIV-2: CEM cells, syncytium formation, day four post infection; for HIV-2 % Protection: protection of CEM cells against virus-induced cytopathicity at the concentration in the previous column
Text: (§1) The cell type used to determine activity of the compounds of the invention herein, i.e., the test compounds, against HIV was human T-lymphoblast (CEM) cells obtained from the American Tissue Cell Culture Collection (Rockville, Md.). HIV-1 (IIIB) was originally obtained from the culture of persistently HIV-1 infected H9 cells and was provided by R. C. Gallo and M. Popovic (National Cancer Institute, National Institutes of Health, Bethesda, Md.). HIV-2 (ROD) was originally obtained from L. M. Montagnier (Pasteur Institute, Paris, France).
(§2) To determine the antiviral activity of the test compounds, CEM cells were suspended at a cell density of approximately 300,000 cells per ml of culture medium and infected with approximately 100 CCID50 (100 CCID50 being the 50% cell culture infective dose) of HIV-1 (IIIB) or HIV-2 (ROD)). Then 100 μl of the infected cell suspensions was added to 200 μl micro titer plate wells containing 100 μl of appropriate serial (5-fold) dilutions of the test compounds. The inhibitory effect of the test compounds on HIV-1 or HIV-2 syncytium formation in CEM cells was examined microscopically on day four post infection.
(§3) In these cases, the percent protection of the cells against virus-induced cytopathicity by the test compounds at the indicated compound concentration in the previous column is given.

HIV-1 (IIIB) = assay: microbe, parasite or virus in culture; assay type: cell-based; conditions: for EC50: Human immunodeficiency virus 1, IIIB, CCRF-CEM, read-out: EC50 (ug/ml) HIV-1; for EC50 / EC50 (ug/ml) HIV-1: CEM cells, syncytium formation, day four post infection; for HIV-1 % Protection: protection of CEM cells against virus-induced cytopathicity at the concentration in the previous column
Text: as §1, §2, §3

SMILES	EC50 (Davis strain CMV)	EC50 (HIV-2 (ROD))	HIV-2 % Protection (HIV-2 (ROD))	EC50 (HIV-1 (IIIB))	Antiviral % Inhibition Davis strain CMV (Davis strain CMV)	Antiviral EC50 (ug/ml) Davis strain CMV (Davis strain CMV)	EC50 (ug/ml) HIV-2 (HIV-2 (ROD))	EC50 (ug/ml) HIV-1 (HIV-1 (IIIB))	HIV-1 % Protection (HIV-1 (IIIB))
Cc1ccc(C)c(C(C)S(=O)(=O)c2ccc(C)c[n+]2[O-])c1 (stereo not shown) [Compound 110, 2-[1-(2,5-Dimethylphenyl)ethylsulfonyl]-5-methylpyridine N-oxide]	50 µg/mL (≈ 164 µM)	> 100 µg/mL	0.0%	5.5 µg/mL (≈ 18 µM)	–	–	–	–	–
[O-][n+]1ccccc1[S+]([O-])Cc1ccc2c(c1)OCO2 (stereo not shown) [Compound 96]	–	–	–	–	0.0%	>50 µg/mL	12.0 µg/mL (≈ 43.3 µM)	20.00 µg/mL (≈ 72.1 µM)	–
COc1ccc(C[S+]([O-])c2cccc[n+]2[O-])cc1 (stereo not shown) [Compound 86]	–	–	0.0%	–	–	3.8 µg/mL	>0.8 µg/mL	>.8 µg/mL	0.0%
CCCCCCCC(c1cc(C)ccc1C)S(=O)(=O)c1cccc[n+]1[O-] (stereo not shown) [Compound 7, 2-[1-(2,5-Dimethylphenyl)octylsulfonyl]pyridine N-oxide]	0.7 µg/mL (≈ 1.86 µM)	> 0.8 µg/mL	0.0%	> 0.8 µg/mL	–	–	–	–	0.0%
[O-][n+]1ccccc1[S+]([O-])Cc1ccc(F)cc1 (stereo not shown) [Compound 92]	–	–	–	–	10.0%	>50 µg/mL	4.0 µg/mL (≈ 15.9 µM)	≧20 ug/ml	37.5%
Cc1ccccc1CS(=O)(=O)c1cccc[n+]1[O-] [Compound 16, 2-(2-Methylphenylmethylsulfonyl)-pyridine N-oxide]	12 µg/mL (≈ 45.6 µM)	7.5 µg/mL (≈ 28.5 µM)	–	11 µg/mL (≈ 41.8 µM)	–	–	–	–	–
O=S(=O)(Cc1cc2c(cc1Cl)OCO2)c1cccc[n+]1[O-] [Compound 21]	–	–	–	–	–	10.0 µg/mL	6.3 µg/mL (≈ 19.2 µM)	11.70 µg/mL (≈ 35.7 µM)	–
O=S(=O)(Cc1cccc2ccccc12)c1cccc[n+]1[O-] [Compound 13]	–	–	–	–	20.0%	>5 µg/mL	6.0 µg/mL (≈ 20 µM)	6.50 µg/mL (≈ 21.7 µM)	–
Cc1cc[n+]([O-])c([S+]([O-])Cc2ccc(Cl)cc2)c1 (stereo not shown) [Compound 128]	–	–	–	–	40.0%	>20 µg/mL	7.0 µg/mL (≈ 24.8 µM)	≧4 ug/ml	37.5%
O=S(=O)(Cc1ccccc1)c1ccccn1 [Compound 143]	–	–	–	–	0.0%	>50 µg/mL	50.0 µg/mL (≈ 214 µM)	30.00 µg/mL (≈ 129 µM)	–
[O-][n+]1ccccc1[S+]([O-])Cc1cccc(C(F)(F)F)c1 (stereo not shown) [Compound 85]	–	–	–	–	20.0%	>50 µg/mL	17.0 µg/mL (≈ 56.4 µM)	13.00 µg/mL (≈ 43.1 µM)	–
Cc1ccc(C[S+]([O-])c2cccc[n+]2[O-])cc1 (stereo not shown) [Compound 91]	–	–	0.0%	–	–	34.5 µg/mL	>4.0 µg/mL	>4 µg/mL	0.0%
O=S(=O)(Cc1ccc2ccccc2c1)c1cccc[n+]1[O-] [Compound 53]	–	–	–	–	20.0%	>5 µg/mL	4.1 µg/mL (≈ 13.7 µM)	2.33 µg/mL (≈ 7.78 µM)	–
[O-][n+]1cccc(Cl)c1[S+]([O-])Cc1ccccc1 (stereo not shown) [Compound 136]	–	–	0.0%	–	–	4.7 µg/mL	>4.0 µg/mL	1.50 µg/mL (≈ 5.6 µM)	–
Cc1ccc(C)c(C[S+]([O-])c2c(C)ccc[n+]2[O-])c1 (stereo not shown) [Compound 70]	–	–	37.5%	–	–	11.0 µg/mL	≧20 ug/ml	12.00 µg/mL (≈ 43.6 µM)	–
N#Cc1ccc(CS(=O)(=O)c2cccc[n+]2[O-])cc1 [Compound 34]	–	–	–	–	10.0%	>20 µg/mL	10.0 µg/mL (≈ 36.5 µM)	9.00 µg/mL (≈ 32.8 µM)	–
O=S(=O)(Cc1ccccc1Cl)c1cccc[n+]1[O-] [Compound 15]	–	–	–	–	–	5.0 µg/mL	7.0 µg/mL (≈ 24.7 µM)	6.00 µg/mL (≈ 21.1 µM)	–
Cc1ccc(CS(=O)(=O)c2cccc[n+]2[O-])cc1[N+](=O)[O-] [Compound 67]	–	–	–	–	20.0%	>50 µg/mL	2.4 µg/mL (≈ 7.78 µM)	2.30 µg/mL (≈ 7.46 µM)	–
Cc1ccc(C)c(C(Cl)S(=O)(=O)c2c(Cl)ccc[n+]2[O-])c1 (stereo not shown) [Compound 125]	–	–	0.0%	–	–	31.5 µg/mL	>4.0 µg/mL	>4 µg/mL	0.0%
Cc1ccc[n+]([O-])c1S(=O)(=O)C(C)c1ccccc1 (stereo not shown) [Compound 115]	–	–	0.0%	–	40.0%	>50 µg/mL	>20.00 µg/mL	>20 µg/mL	0.0%
O=S(=O)(Cc1ccc(F)cc1)c1cccc[n+]1[O-] [Compound 29]	–	–	–	–	10.0%	>20 µg/mL	7.0 µg/mL (≈ 26.2 µM)	11.00 µg/mL (≈ 41.2 µM)	–
Cc1ccc[n+]([O-])c1SCc1c(Cl)cccc1Cl [Compound 137]	–	–	0.0%	–	–	28.0 µg/mL	>20.00 µg/mL	>20 µg/mL	0.0%
COc1ccc([N+](=O)[O-])cc1CS(=O)(=O)c1cccc[n+]1[O-] [Compound 20]	–	–	–	–	–	13.0 µg/mL	13.0 µg/mL (≈ 40.1 µM)	7.00 µg/mL (≈ 21.6 µM)	–
Cc1ccc(C)c(C[S+]([O-])c2cccc[n+]2[O-])c1C (stereo not shown) [Compound 97, 2-(2,3,6-Trimethylphenylmethylsulfinyl)pyridine N-oxide]	11 µg/mL (≈ 39.9 µM)	> 0.8 µg/mL	0.0%	> 0.8 µg/mL	–	–	–	–	0.0%
O=S(=O)(Cc1ccc(-c2ccccc2)cc1)c1cccc[n+]1[O-] [Compound 54]	–	–	–	–	–	5.0 µg/mL	4.0 µg/mL (≈ 12.3 µM)	≧4 ug/ml	37.5%
Cc1cc(C)c(C[S+]([O-])c2cccc[n+]2[O-])c(C)c1 (stereo not shown) [Compound 88, 2-(2,4,6-trimethylbenzylsulfinyl)-pyridine-N-oxide]	25 µg/mL (≈ 90.8 µM)	1.5 µg/mL (≈ 5.45 µM)	–	1.5 µg/mL (≈ 5.45 µM)	–	–	–	–	–
Cc1ccc([N+](=O)[O-])c(CS(=O)(=O)c2cccc[n+]2[O-])c1 [Compound 62]	–	–	–	–	20.0%	>5 µg/mL	5.0 µg/mL (≈ 16.2 µM)	1.90 µg/mL (≈ 6.16 µM)	–
Cc1cc([N+](=O)[O-])ccc1CS(=O)(=O)c1c(C)ccc[n+]1[O-] [Compound 118]	–	–	0.0%	–	10.0%	>5 µg/mL	>4.0 µg/mL	>4 µg/mL	–
